Reference: patent US20100273189A1, “NON SEPARATION ASSAYS WITH SELECTIVE SIGNAL INHIBITORS” (BECKMAN COULTER, INC., priority 2009, published 2010)
Like-named read-outs stand apart in the source and are kept apart here.

Experiments:
PSA = assay: Screening SSIA by homogeneous PSA immunoassay; assay type: biochemical
Procedure: This example presents one method used for testing of candidate compounds for functionality as SSIA in assays of the present disclosure. Testing was conducted in a model screening immunoassay of the protein PSA. Mouse anti-PSA tests were run using a 96-well microtiter plate format. […] The plate was incubated at 37° C. for 10 minutes. A 5 μL aliquot of the test compound (various concentrations) was added to each well. Chemiluminescence was triggered by the addition of 100 μL of a solution of trigger solution A. The chemiluminescent flash was integrated for 5 seconds after the addition of the trigger solution using a Luminoskan Asent® plate luminometer, (Thermo Fischer Scientific, Inc., Waltham, Mass.).
It is desirable that the improvement factor be at least 2 (S5/S0≧ about 20-30) and more desirable that improvement factor be at least 5 (S5/S0≧ about 50), yet more desirable that S5/S0 be ≧100 in the present screen.

biotinylated HRP = target: T1, biotinylated HRP (Armoracia rusticana, UniProt P00433); assay: Model system for selection of SSIA (M280 btn-BSA-AK1-streptavidin particles + Btn-HRP:HRP); assay type: biochemical; settings: for S/S0: Btn-HRP 0 ng/mL vs 0; for B-HRP0 light intensity: Btn-HRP 0 ng/mL; for B-HRP0 light intensity / B-HRP1 light intensity / B-HRP10 light intensity / B-HRP100 light intensity / B-HRP250 light intensity: total HRP 500 ng/mL, SSIA final 100 μM; for S1/S0: Btn-HRP 1 ng/mL vs 0; for B-HRP1 light intensity: Btn-HRP 1 ng/mL; for S2/S0: Btn-HRP 10 ng/mL vs 0; for B-HRP10 light intensity: Btn-HRP 10 ng/mL; for S3/S0: Btn-HRP 100 ng/mL vs 0; for B-HRP100 light intensity: Btn-HRP 100 ng/mL; for S4/S0: Btn-HRP 250 ng/mL vs 0; for B-HRP250 light intensity: Btn-HRP 250 ng/mL
T1 construct: purchased Roche Diagnostics, Indianapolis, Ind., USA
T1 sequence (P00433 31-338 limits assumed): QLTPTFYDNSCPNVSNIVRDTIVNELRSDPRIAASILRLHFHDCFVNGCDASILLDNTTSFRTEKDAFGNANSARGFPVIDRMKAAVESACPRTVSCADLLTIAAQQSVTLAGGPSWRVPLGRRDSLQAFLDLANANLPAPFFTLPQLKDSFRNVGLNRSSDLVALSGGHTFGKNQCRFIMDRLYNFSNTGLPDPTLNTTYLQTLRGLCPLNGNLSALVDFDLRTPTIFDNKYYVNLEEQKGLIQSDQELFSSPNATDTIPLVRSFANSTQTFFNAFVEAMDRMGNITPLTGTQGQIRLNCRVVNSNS
Procedure: The model system uses a microparticle conjugated to BSA (bovine serum albumin) labeled with a […] and acridan ketenedithioacetal chemiluminescent label (AK1) as the chemiluminescent-labeled sbp, and biotinylated HRP as the activator-labeled specific binding pair. In the model system, varying amounts of Btn-HRP is added to the chemiluminescent-labeled specific binding pair at 0, 1, 10, 100 and 250 ng/mL. Additional unlabeled HRP is added to reach a total HRP of concentration of 500 ng/mL in each reaction mixture. The unlabeled HRP in combination with the activator-labeled sbp was provided to the chemiluminescent-labeled sbp microparticles to emulate sample. A compound for assessment as an SSIA was also added. This reaction mixture of the model system is then triggered by addition of trigger solution in a manner of assays of the present disclosure.
To prepare the chemiluminescent-labeled sbp on microparticles, Bovine Serum Albumin (BSA) was biotinylated with 4× molar excess of biotin-LC-sulfoNHS (Pierce Biotechnology Inc., Rockford, Ill., USA). Unbound reactants were removed via desalting or dialysis. The biotin-BSA was then reacted with a 5× molar excess of acridan ketenedithioacetal AK1 in 20 mM sodium phosphate pH 7.2: DMSO 75:25, v/v) followed by desalting in the same buffer. The dual labeled (biotin and AK1) BSA was then coupled with tosyl activated M-280 microparticles (Invitrogen Corporation, Carlsbad, Calif., USA) in a 0.1 M borate buffer pH 9.5 at a concentration of ca. 20 μg labeled BSA per mg of microparticles for 16-24 h at 40° C. After coupling the microparticles were stripped for 1 h at 40° C. with 0.2 M TRIS base, 2% SDS, pH ˜11. The stripping process was repeated one additional time. Microparticles were then suspended in a 0.1% BSA/TRIS buffered saline (BSA/TBS) buffer and streptavidin (SA) was added at approximately 15 μg SA per mg microparticles. Streptavidin was mixed with the microparticles for 45-50 min at room temperature. The microparticles were then washed three times and suspended in the same BSA/TBS.
HRP, (Roche Diagnostics, Indianapolis, Ind., USA) was biotinylated with 4× molar excess of biotin-LC-sulfoNHS (Pierce Biotechnology Inc., Rockford, Ill., USA). Unbound reactants were removed via desalting or dialysis.
Each SSIA compound for assessment was dissolved in Buffer II at a concentration at least 10× of final concentration of the reaction mixture (after the addition of the trigger solution)
Paramagnetic particles (PMP): (M280)-(btn-BSA-AK)-(Streptavidin);
Sample Emulator: B-HRP:HRP; 500 ng/mL total with titration of B-HRP:HRP at Total HRP concentration of 500 ng/mL, with Btn-HRP variations: 0, 1, 10, 100 and 250 ng/mL.
SSIA: According to tables below in BUFFER II targeted to give a final concentration of 100 μM.
Trigger solution A is defined above.
5 μl of 1 mg/ml of dual-labeled (biotin and AK1) BSA M280 particles were mixed with 45 μl of working concentration SSIA in Buffer II. The assay volume brought to […] by adding 15 μl of Buffer II. 15 μl of sample containing Btn-HRP:HRP at different ratios (The amount of biotinylated-HRP varied from 0, 1, 10, 100 and 250 ng/mL) was added. The reaction mixture was incubated for 30 min at 37° C., then 100 μL of trigger solution was added and the light intensity recorded. Total volume of reaction mixture, including trigger solution was […] with a final concentration of 100 μM of SSIA.

[1] = PSA 129 ng/mL (S5) vs zero, test compound final conc. 0.122 mM
[2] = PSA 129 ng/mL (S5) vs zero, test compound final conc. 0.244 mM
[3] = PSA 129 ng/mL (S5) vs zero, test compound final conc. 0.061 mM
[4] = PSA 129 ng/mL (S5) vs zero, test compound final conc. 122 uM

## Cc1cc(CO)c(O)c(CO)c1
PSA; [1]
  S5/S0: 23

## COc1cc(C(C)(C)C)c(O)c(C(C)(C)C)c1
PSA; [1]
  S5/S0: 19

## Cc1ccc(O)c(O)c1
PSA; [1]
  S5/S0: 142

## O=C(O)c1ccc(O)c(O)c1
PSA; [1]
  S5/S0: 178

## Oc1cccc(O)c1O
PSA; [1]
  S5/S0: 69

## O=C(O)c1cc(O)c(O)c(O)c1
PSA; [1]
  S5/S0: 135

## COc1ccccc1O
PSA; [1]
  S5/S0: 13

## Oc1ccc([C@@H]2Oc3cc(O)c(O)cc3C[C@@H]2O)cc1O
PSA; [1]
  S5/S0: 323

## O=c1cc(O)c2ccccc2o1
PSA; [1]
  S5/S0: 17

## O=c1ccc2cc(O)c(O)cc2o1
PSA; [1]
  S5/S0: 105

## O=c1c(O)c(-c2ccccc2)oc2ccccc12
PSA; [1]
  S5/S0: 13

## O=c1c(O)c(-c2ccccc2)oc2cc(O)ccc12
PSA; [1]
  S5/S0: 14

## O=c1c(O)c(-c2ccccc2)oc2ccc(O)cc12
PSA; [1]
  S5/S0: 9

## Nc1c(O)cc(S(=O)(=O)O)c2ccccc12
PSA; [1]
  S5/S0: 65

## Oc1c(F)c(F)c(O)c(F)c1F
PSA; PSA 129 ng/mL (S5) vs zero, test compound final conc. 0.014 mM
  S5/S0: 50

## Nc1cc(Cl)ccc1O
PSA; [2]
  S5/S0: 205

## Nc1ccc(O)cc1O
PSA; PSA 129 ng/mL (S5) vs zero, test compound final conc. 0.030 mM
  S5/S0: 161

## O=C(O)c1cc(O)c2ccccc2n1
PSA; [1]
  S5/S0: 6

## c1ccc2c(c1)Cc1ccccc1O2
PSA; [1]
  S5/S0: 4

## O=c1c2ccccc2[nH]c2ccccc12
PSA; [1]
  S5/S0: 14

## O=S(=O)([O-])CCCN1c2ccccc2Sc2ccccc21.[Na+]
PSA; [2]
  S5/S0: 50

## O=C1C(O)=C(O)C(=O)C(O)=C1O
PSA; [3]
  S5/S0: 51

## O=C1C(O)=C(Cl)C(=O)C(O)=C1Cl
PSA; PSA 129 ng/mL (S5) vs zero, test compound final conc. 0.031 mM
  S5/S0: 7

## Nc1ccccc1B(O)O
PSA; [1]
  S5/S0: 108

## C=CCc1ccc(O)c(OC)c1
PSA; [2]
  S5/S0: 30

## O=S(=O)([O-])CCCOCCCN1c2ccccc2Cc2ccccc21.[Na+]
PSA; [2]
  S5/S0: 6

## Nc1c(O)ccc2ccccc12
PSA; [1]
  S5/S0: 63

## O=C(O)/C=C/c1ccc(O)c(O)c1
PSA; [1]
  S5/S0: 116

## NCCNC(=O)c1ccc(NN)cc1
PSA; PSA 129 ng/mL (S5) vs zero, test compound final conc. 1.22 mM
  S5/S0: 138

## CC1(C)OC(=O)C(O)=C1O
PSA; [1]
  S5/S0: 467

## CC1=C(O)C(=O)C(C)O1 (stereo not drawn)
PSA; PSA 129 ng/mL (S5) vs zero, test compound final conc. 1.25 mM
  S5/S0: 237

## Nc1ncccc1O
PSA; [1]
  S5/S0: 32

## COc1ccccc1N
PSA; [1]
  S5/S0: 7

## c1ccc2c(c1)Nc1ccccc1O2
PSA; [1]
  S5/S0: 605

## c1ccc2c(c1)Cc1ccccc1N2
PSA
  S5/S0: 120

## COC1=C(O)C(=O)O[C@@H]1[C@@H](O)CO
PSA; [4]
  S5/S0: 16

## O=C1O[C@H]([C@@H](O)CO)C(=O)C1=O
PSA; [1]
  S5/S0: 26

## COc1cc(O)ccc1O
PSA; PSA 129 ng/mL (S5) vs zero, test compound final conc. 0.111 mM
  S5/S0: 161

## Nc1cccc(Cl)c1O
PSA; [2]
  S5/S0: 300

## Oc1cccnc1O
PSA; [1]
  S5/S0: 41

## O=C(O)/C(O)=C(/O)C(=O)O
PSA; [1]
  S5/S0: 30

## O=C(O)c1cccc(O)c1O
PSA; [1]
  S5/S0: 22

## c1ccc2c(c1)Cc1ccccc1S2
PSA; [1]
  S5/S0: 9

## O=C(O)C1c2ccccc2Oc2ccccc21
PSA; [1]
  S5/S0: 7

## O=C(c1ccccc1)C1c2ccccc2Nc2ccccc21
PSA; [1]
  S5/S0: 9

## O=S(=O)([O-])CCCN1c2ccccc2Cc2ccccc21.[Na+]
PSA; [2]
  S5/S0: 15

## NNC(=O)c1ccccc1O
PSA; [3]
  S5/S0: 23

## O=C1C=C(O)C(=O)C=C1O
PSA; [2]
  S5/S0: 14

## OB(O)c1cc(Cl)ccc1O
PSA; [2]
  S5/S0: 22

## Nc1ccccc1S
PSA; [1]
  S5/S0: 234

## Nc1cc2ccccc2cc1O
PSA; [2]
  S5/S0: 67

## Nc1ccc2ccccc2c1O
PSA; [2]
  S5/S0: 109

## Oc1ccc(O)c(Br)c1
PSA; [1]
  S5/S0: 570

## Nc1cc(C[C@H](N)C(=O)O)ccc1O
PSA; [2]
  S5/S0: 448

## C[C@H]1OC(=O)C(O)=C1O
PSA; [1]
  S5/S0: 423

## O=C1O[C@H]([C@@H](O)CO)C([O-])=C1O.[Na+]
PSA; [4]
  S5/S0: 9.2

## O=C1O[C@H]([C@H](O)CO)C(O)=C1O
PSA; [4]
  S5/S0: 10.3

## Cc1c(C)c2c(c(C)c1O)CCC(C)(C(=O)O)O2 (stereo not drawn) [Trolox ®, Trolox]
Biotinylated HRP; SSIA 100 μM
  S/S0: 1
  S1/S0: 8.4
  S2/S0: 215.1
  S3/S0: 41832.7
  S4/S0: 62274.5
Biotinylated HRP
  B-HRP0 light intensity: 173
  B-HRP1 light intensity: 1,460
  B-HRP10 light intensity: 37,291
  B-HRP100 light intensity: 7,251,008
  B-HRP250 light intensity: 10,794,247
Biotinylated HRP; SSIA 100 μM, conclusion in words
  effect in the model system / utility as SSIA: demonstrating utility as SSIA

## O=c1[nH]c(=O)c2[nH]c(=O)[nH]c2[nH]1 [Uric Acid]
Biotinylated HRP; SSIA 100 μM
  S/S0: 1
  S1/S0: 1.8
  S2/S0: 185.3
  S3/S0: 1574.9
  S4/S0: 1935.8
Biotinylated HRP
  B-HRP0 light intensity: 5,532
  B-HRP1 light intensity: 9,760
  B-HRP10 light intensity: 1,025,209
  B-HRP100 light intensity: 8,712,328
  B-HRP250 light intensity: 10,708,733
